Assays:
[1] = target: T1, VDR (Rattus norvegicus, UniProt P13053); assay: Western blot of VDR in sinusoidal endothelial cells (SECs); type: cell-based; set-up: endogenous in cells; host or cells: primary rat hepatic stellate cells, sinusoidal endothelial cells, Kupffer cells and hepatocytes (Sprague-Dawley rats); conditions: FIG. 10A
T1 sequence (P13053 1-423): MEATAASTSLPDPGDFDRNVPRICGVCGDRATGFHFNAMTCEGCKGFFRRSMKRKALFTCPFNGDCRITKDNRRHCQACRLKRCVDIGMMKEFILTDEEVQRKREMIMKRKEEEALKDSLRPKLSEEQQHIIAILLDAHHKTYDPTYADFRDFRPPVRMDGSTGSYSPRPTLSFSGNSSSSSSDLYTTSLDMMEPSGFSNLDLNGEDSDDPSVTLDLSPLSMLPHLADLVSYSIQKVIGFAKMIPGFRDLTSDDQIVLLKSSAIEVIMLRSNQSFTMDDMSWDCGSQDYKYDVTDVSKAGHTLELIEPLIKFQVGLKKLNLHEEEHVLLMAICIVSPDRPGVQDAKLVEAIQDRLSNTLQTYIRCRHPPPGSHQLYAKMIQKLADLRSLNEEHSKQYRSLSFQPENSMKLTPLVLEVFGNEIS
Text: Hepatic sinusoidal endothelial cells (SECs) and Kupffer cells (KCs) were elutriated from rat liver and maintained in cell culture.

[2] = test system: hepatocytes; assay: Illumina Sentrix arrays: hepatocytes treated with TGF-β1 and calcitriol (Tables 9 and 10); type: cell-based; conditions: rat hepatocytes, TGF-β1 2 ng/mL, 24 h
Protocol: Cells were cultured and treated as described in Example 14. Gene expression was determined using Illumina Sentrix expression arrays, rat version 1, according to the manufacturer's instructions.
Triplicate biologic replicates were assayed for each treatment.

In the case of “TGF-β1: transforming growth factor beta 1; human recombinant from Sigma-Aldrich T7039”, the VDR protein expression [1] is reported as “induced”, the Abcb4 gene expression [2] is reported as 96.93 and the Abcg2 gene expression [2] is reported as 913.91. It also gave an Abcg4 gene expression [2] of 95.82, a Ccl3 gene expression [2] of 540.53 and a Ccl4 gene expression [2] of 380.06. It also gave a Ccl7 gene expression [2] of 1303.89, a Ccl12 gene expression [2] of 368.02 and a Cd44 gene expression [2] of 680.16. The Cxcr4 gene expression [2] was 164.68, the Cyp1a2 gene expression [2] was 135.53 and the Cyp2d1 gene expression [2] was 147.68. The Cyp2d5 gene expression [2] was 338.34, the Cyp3a23/3a1 gene expression [2] was 380.28 and the Gstm1 gene expression [2] was 2230.15. For the same substance, the Gstm2 gene expression [2] was 715.15, the Gsto1 gene expression [2] was 1364.06 and the Il1a gene expression [2] was 675.41. For the same substance, the Il1b gene expression [2] was 1551.37, the Jak2 gene expression [2] was 669.28 and the Mmp9 gene expression [2] was 159.27. For the same substance, the Nos2 gene expression [2] was 90.7, the Slc7a6os gene expression [2] was 241.22 and the Slc25a4 gene expression [2] was 671.16. For the same substance, the Slc25a19 gene expression [2] was 195.9, the Slc28a1 gene expression [2] was 50.32 and the Slc28a2 gene expression [2] was 157.29. For the same substance, the Slc35a4 gene expression [2] was 157.88, the Slc37a4 gene expression [2] was 246.55 and the Tlr2 gene expression [2] was 978.98. The Tlr7 gene expression [2] was 110.03, the Ugt2b5 gene expression [2] was 155.32 and the cyp2a1 gene expression [2] was 216.95. For the same substance, the cyp2c22 gene expression [2] was 2009.34, the cyp4a10 gene expression [2] was 91.71 and the cyp24a1 gene expression [2] was 56.9. For the same substance, the slc25a1 gene expression [2] was 1375.94, the slc25a5 gene expression [2] was 2038.43 and the slc26a1 gene expression [2] was 181.21. The slc39a1 gene expression [2] was 489.71.

— patent US8318708B2, “Use of vitamin D receptor agonists, ligands, and precursors to treat pancreatic fibrosis” (Salk Institute for Biological Studies, priority 2007, dated 2012)
